Residues, ends and D or L forms follow the SMILES beside them. *: point of attachment. Bz = O=C(c1ccccc1)*
What was measured:
[1] = biological target: Genome polyprotein (dengue virus type 2) (UniProt P29990); assay: Inhibition of Dengue virus serotype 2 NS2B-NS3 protease expressed in Escherichia coli BL21 lambda (DE3) cells at 50 uM using Abz-Nle-Lys-Arg-Arg-Ser-3-(NO2)Tyr as substrate preincubated for 15 mins followed by substrate addition and measured for 15 mins by FRET assay relative to control
Genome polyprotein [2] = biological target: Genome polyprotein (dengue virus type 2, UniProt P29990); assay: Inhibition of Dengue virus serotype 2 NS2B-NS3 protease expressed in Escherichia coli BL21 lambda (DE3) cells using Abz-Nle-Lys-Arg-Arg-Ser-3-(NO2)Tyr as substrate preincubated for 15 mins followed by substrate addition and measured for 15 mins by FRET assay
[3] = biological target: Genome polyprotein (West Nile virus) (UniProt P06935); assay: Inhibition of West Nile virus NS2B-NS3 protease expressed in Escherichia coli BL21 lambda (DE3) cells at 50 uM using Abz-Gly-Leu-Lys-Arg-Gly-Gly-3-(NO2)Tyr as substrate preincubated for 15 mins followed by substrate addition measured for 15 mins by fluorimetric analysis relative to control
[4] = biological target: Genome polyprotein (dengue virus type 2) (UniProt P29990); assay: Inhibition of Dengue virus serotype 2 NS2B-NS3 protease transfected in human HeLa cells at 12.5 uM measured after 24 hrs by Renilla-luciferase reporter gene assay relative to control; assay type: cell-based
[5] = Cytotoxicity against human HeLa cells assessed as reduction in cell viability measured after 24 hrs by celltiter-blue assay; assay type: cell-based
Trypsin = Trypsin (Homo sapiens, UniProt P07477+P07478+P35030); assay: Inhibition of trypsin (unknown origin) at 50 uM using Boc-Val-Pro-Arg-AMC as substrate preincubated for 15 mins followed by substrate addition and measured for 15 mins by fluorimetric assay relative to control; assay type: protein assay; settings: 0.25 h, 50 µM
Prothrombin = Prothrombin (Homo sapiens, UniProt P00734); assay: Inhibition of thrombin (unknown origin) at 25 uM using Boc-Val-Pro-Arg-AMC as substrate preincubated for 15 mins followed by substrate addition and measured for 15 mins by fluorimetric assay; settings: 0.25 h
Genome polyprotein [6] = biological target: Genome polyprotein (West Nile virus, UniProt P06935); assay: Inhibition of West Nile virus NS2B-NS3 protease expressed in Escherichia coli BL21 lambda (DE3) cells using Abz-Gly-Leu-Lys-Arg-Gly-Gly-3-(NO2)Tyr as substrate preincubated for 15 mins followed by substrate addition measured for 15 mins by fluorimetric analysis
Genome polyprotein (West Nile virus, UniProt P06935), sequence (P06935 1371-1501 limits assumed): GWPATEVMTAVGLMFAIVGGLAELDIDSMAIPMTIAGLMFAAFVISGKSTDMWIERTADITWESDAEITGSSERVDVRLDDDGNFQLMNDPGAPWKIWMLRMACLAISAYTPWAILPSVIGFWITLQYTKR
Genome polyprotein (West Nile virus, UniProt P06935), sequence (P06935 1502-2120 limits assumed): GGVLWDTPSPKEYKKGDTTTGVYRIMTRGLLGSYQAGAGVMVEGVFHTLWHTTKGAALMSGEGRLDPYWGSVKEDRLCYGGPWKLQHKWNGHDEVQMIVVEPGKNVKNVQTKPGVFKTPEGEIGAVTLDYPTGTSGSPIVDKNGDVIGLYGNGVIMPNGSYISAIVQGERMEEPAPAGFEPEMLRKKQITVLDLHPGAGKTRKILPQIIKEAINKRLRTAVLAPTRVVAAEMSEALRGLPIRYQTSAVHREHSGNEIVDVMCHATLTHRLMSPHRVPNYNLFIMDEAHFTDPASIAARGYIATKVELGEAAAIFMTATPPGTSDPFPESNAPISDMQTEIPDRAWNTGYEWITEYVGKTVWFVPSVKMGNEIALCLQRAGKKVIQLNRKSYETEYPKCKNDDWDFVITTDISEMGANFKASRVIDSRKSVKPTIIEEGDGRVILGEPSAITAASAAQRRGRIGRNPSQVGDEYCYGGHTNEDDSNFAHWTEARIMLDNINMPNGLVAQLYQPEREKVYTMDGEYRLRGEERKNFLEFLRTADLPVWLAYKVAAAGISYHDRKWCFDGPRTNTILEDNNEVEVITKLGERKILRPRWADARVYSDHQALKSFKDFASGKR

Genome polyprotein (West Nile virus), sequence (P06935 whole entry): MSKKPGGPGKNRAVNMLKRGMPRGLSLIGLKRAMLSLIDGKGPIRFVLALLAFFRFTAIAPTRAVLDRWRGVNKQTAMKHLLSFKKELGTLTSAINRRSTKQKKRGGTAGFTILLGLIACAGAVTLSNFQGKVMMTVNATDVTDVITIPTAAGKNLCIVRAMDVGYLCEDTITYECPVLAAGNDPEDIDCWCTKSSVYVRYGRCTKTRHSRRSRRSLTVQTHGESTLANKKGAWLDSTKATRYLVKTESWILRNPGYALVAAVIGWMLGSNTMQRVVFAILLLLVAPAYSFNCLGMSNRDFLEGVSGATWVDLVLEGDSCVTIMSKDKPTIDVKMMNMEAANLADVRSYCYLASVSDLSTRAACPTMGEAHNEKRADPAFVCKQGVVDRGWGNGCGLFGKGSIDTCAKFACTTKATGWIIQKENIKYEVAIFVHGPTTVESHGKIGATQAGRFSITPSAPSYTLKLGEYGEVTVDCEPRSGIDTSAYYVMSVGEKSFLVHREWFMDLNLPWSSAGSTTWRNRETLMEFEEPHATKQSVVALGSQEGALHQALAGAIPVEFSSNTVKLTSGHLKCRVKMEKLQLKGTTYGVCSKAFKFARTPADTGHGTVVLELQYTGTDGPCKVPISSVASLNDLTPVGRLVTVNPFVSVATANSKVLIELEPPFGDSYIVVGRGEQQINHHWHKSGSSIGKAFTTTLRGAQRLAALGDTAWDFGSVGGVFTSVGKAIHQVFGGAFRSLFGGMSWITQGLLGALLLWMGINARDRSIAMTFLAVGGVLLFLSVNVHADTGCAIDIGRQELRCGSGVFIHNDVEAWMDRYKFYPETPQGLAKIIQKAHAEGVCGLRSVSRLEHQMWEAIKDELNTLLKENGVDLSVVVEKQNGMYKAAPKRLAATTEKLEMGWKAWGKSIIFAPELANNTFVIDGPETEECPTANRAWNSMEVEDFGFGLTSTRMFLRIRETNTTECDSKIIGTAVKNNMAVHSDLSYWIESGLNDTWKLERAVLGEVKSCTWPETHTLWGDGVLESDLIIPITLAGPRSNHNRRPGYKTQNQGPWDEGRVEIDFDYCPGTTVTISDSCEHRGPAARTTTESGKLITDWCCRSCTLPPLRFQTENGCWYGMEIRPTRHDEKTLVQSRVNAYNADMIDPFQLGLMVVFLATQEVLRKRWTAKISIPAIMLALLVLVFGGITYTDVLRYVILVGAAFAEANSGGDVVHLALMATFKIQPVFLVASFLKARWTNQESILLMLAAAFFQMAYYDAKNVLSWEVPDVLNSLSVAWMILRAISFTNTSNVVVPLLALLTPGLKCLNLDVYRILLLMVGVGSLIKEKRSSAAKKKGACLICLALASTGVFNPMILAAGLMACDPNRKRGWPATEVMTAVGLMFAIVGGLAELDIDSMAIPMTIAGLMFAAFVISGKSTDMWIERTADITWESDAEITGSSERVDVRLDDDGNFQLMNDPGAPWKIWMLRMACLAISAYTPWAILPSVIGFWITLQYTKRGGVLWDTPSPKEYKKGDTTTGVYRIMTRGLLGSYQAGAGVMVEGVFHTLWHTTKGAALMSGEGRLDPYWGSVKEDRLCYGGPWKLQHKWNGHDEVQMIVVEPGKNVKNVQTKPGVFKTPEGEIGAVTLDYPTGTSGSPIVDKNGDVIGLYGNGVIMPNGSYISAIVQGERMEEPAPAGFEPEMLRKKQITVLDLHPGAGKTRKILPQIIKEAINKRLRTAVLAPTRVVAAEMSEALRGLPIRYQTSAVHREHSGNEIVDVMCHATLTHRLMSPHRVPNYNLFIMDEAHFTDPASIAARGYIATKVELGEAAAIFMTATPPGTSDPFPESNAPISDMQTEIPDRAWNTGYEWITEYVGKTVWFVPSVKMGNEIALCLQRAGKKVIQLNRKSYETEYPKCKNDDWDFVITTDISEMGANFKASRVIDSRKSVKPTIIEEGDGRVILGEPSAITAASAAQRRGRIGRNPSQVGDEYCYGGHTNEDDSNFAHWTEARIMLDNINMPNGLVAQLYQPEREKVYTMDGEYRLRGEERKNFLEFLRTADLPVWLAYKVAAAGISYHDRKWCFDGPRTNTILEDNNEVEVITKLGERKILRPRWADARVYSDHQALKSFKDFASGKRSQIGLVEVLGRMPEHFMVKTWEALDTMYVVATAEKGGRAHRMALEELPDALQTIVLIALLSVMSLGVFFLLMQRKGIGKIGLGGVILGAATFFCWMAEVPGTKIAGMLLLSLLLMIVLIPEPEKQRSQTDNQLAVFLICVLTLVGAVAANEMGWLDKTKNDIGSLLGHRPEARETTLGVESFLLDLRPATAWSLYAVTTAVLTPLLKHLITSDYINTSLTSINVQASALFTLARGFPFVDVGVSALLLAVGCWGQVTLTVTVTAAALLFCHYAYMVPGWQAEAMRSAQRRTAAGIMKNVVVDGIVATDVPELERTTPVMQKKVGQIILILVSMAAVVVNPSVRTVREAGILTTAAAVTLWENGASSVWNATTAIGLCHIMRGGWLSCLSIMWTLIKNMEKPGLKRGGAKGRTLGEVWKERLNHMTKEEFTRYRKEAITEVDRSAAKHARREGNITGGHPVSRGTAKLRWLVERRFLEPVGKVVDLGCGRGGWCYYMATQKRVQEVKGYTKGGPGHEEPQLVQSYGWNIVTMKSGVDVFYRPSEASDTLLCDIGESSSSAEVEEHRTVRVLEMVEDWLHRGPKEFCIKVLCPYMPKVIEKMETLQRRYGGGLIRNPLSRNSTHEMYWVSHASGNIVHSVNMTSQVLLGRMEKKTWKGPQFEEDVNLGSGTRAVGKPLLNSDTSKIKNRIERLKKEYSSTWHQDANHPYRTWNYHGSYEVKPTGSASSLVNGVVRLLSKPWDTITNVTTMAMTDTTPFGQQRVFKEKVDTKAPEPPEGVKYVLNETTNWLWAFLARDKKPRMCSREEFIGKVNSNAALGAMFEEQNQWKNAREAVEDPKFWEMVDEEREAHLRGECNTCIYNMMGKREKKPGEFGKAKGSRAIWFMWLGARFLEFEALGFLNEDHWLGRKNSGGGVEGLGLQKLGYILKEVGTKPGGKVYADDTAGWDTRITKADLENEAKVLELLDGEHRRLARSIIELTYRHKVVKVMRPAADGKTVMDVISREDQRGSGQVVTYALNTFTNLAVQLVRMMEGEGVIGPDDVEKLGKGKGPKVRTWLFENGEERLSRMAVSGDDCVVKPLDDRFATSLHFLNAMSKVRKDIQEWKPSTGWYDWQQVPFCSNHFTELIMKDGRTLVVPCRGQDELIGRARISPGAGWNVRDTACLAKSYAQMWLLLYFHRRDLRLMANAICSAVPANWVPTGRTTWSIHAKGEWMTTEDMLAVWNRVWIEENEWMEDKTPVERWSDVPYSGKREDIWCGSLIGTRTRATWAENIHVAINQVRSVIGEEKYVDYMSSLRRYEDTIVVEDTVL

CCCCCC(=O)N[C@H](C(=O)NCc1ccc(NC(=N)N)cc1)c1ccc(OCc2ccc(C#N)cc2)cc1.O=C(O)C(F)(F)F
inhibition [1]: 74.3%
IC50 (Genome polyprotein [2]): 40 µM
inhibition [3]: 24.8%
inhibition [4]: 12.7%
CC50 at 24 h [5]: > 50 µM
inhibition (INH) (Trypsin): Not Active
inhibition (INH) (Prothrombin): Not Active

CCCCCC(=O)N[C@H](C(=O)NCc1ccc(N)cc1)c1ccc(OCc2ccccc2)cc1.O=C(O)C(F)(F)F
inhibition [1]: 13%
inhibition [3]: 13.5%
inhibition [4]: 43%
CC50 at 24 h [5]: > 50 µM
inhibition (INH) (Trypsin): Not Active
inhibition (INH) (Prothrombin): Not Active

CCCCCC(=O)N[C@H](C(=O)NCCN)c1ccc(OCc2ccccc2)cc1
inhibition [1]: < 10%
inhibition [3]: < 10%
inhibition [4]: 44%
CC50 at 24 h [5]: > 50 µM
inhibition (INH) (Trypsin): Not Active
inhibition (INH) (Prothrombin): Not Active

N=C(N)NCCC[C@H](NC(=O)c1ccc(/C=C2\SC(=O)N(C3CCC3)C2=O)cc1)C(=O)N[C@@H](CCCCN)C(=O)N[C@H](C(N)=O)c1ccccc1
inhibition (INH) (Trypsin): Not Active
inhibition (INH) (Prothrombin): Not Active

CCCCCC(=O)N[C@H](C(=O)NCc1ccc(NC(N)=O)cc1)c1ccc(OCc2ccccc2)cc1
inhibition [1]: 23.1%
inhibition [3]: 34.2%
inhibition [4]: 24%
CC50 at 24 h [5]: > 50 µM
inhibition (INH) (Trypsin): Not Active
inhibition (INH) (Prothrombin): Not Active

N=C(N)Nc1ccc(CNC(=O)[C@@H](NC(=O)CC2CCCCC2)c2ccc(OCc3ccccc3)cc2)cc1.O=C(O)C(F)(F)F
inhibition [1]: 100%
IC50 (Genome polyprotein [2]): 9 µM
inhibition [3]: 99.5%
IC50 (Genome polyprotein [6]): 28 µM
inhibition [4]: 41.7%
CC50 at 24 h [5]: > 50 µM
inhibition (INH) (Trypsin): Not Active
inhibition (INH) (Prothrombin): Not Active

CCCCCC(=O)N[C@H](C(=O)NCc1ccc(C(=O)NN)cc1)c1ccc(OCc2ccccc2)cc1
inhibition [1]: 28.3%
inhibition [3]: 55%
inhibition [4]: 30.7%
CC50 at 24 h [5]: > 50 µM
inhibition (INH) (Trypsin): Not Active
inhibition (INH) (Prothrombin): Not Active

CCCCCC(=O)N[C@@H](C(=O)NCc1ccc(CN)cc1)c1ccc(OCc2ccc(Cl)c(Cl)c2)cc1.O=C(O)C(F)(F)F
inhibition [1]: 95.2%
IC50 (Genome polyprotein [2]): 3.1 µM
inhibition [3]: 100%
IC50 (Genome polyprotein [6]): 11 µM
CC50 at 24 h [5]: < 12.5 µM
inhibition (INH) (Trypsin): Not Active
inhibition (INH) (Prothrombin): Not Active

CCCCCC(=O)N[C@@H](C(=O)NCc1ccc(NC(=N)N)cc1)c1ccc(OCc2ccc(C(F)(F)F)cc2)cc1.O=C(O)C(F)(F)F
inhibition [1]: 96.7%
IC50 (Genome polyprotein [2]): 6.6 µM
inhibition [3]: 102%
IC50 (Genome polyprotein [6]): 14 µM
inhibition [4]: 44.6%
CC50 at 24 h [5]: > 50 µM
inhibition (INH) (Trypsin): Not Active
inhibition (INH) (Prothrombin): Not Active

N=C(N)Nc1ccc(CNC(=O)[C@@H](NC(=O)c2ccccc2)c2ccc(OCc3ccccc3)cc2)cc1.O=C(O)C(F)(F)F
inhibition [1]: 39%
inhibition [3]: 18.9%
inhibition [4]: 10.5%
CC50 at 24 h [5]: > 50 µM
inhibition (INH) (Trypsin): Not Active
inhibition (INH) (Prothrombin): Not Active

CCCCCC(=O)N[C@H](C(=O)NCc1ccc(NC(=N)N)cc1)c1ccc(OCc2cccc(OC)c2)cc1.O=C(O)C(F)(F)F
inhibition [1]: 32.5%
inhibition [3]: 15.7%
inhibition [4]: 26%
CC50 at 24 h [5]: > 50 µM
inhibition (INH) (Trypsin): Not Active
inhibition (INH) (Prothrombin): Not Active

CCCCCC(=O)N[C@H](C(=O)Nc1ccc(N)cc1)c1ccc(OCc2ccccc2)cc1.O=C(O)C(F)(F)F
inhibition [1]: 13.2%
inhibition [3]: 10.7%
inhibition [4]: 49.5%
CC50 at 24 h [5]: > 50 µM
inhibition (INH) (Trypsin): Not Active
inhibition (INH) (Prothrombin): Not Active

CCCCCC(=O)N[C@H](C(=O)NCc1ccc(NC(=N)N)cc1)c1ccccc1.O=C(O)C(F)(F)F
inhibition [1]: < 10%
inhibition [3]: < 10%
inhibition [4]: 18.8%
CC50 at 24 h [5]: > 50 µM
inhibition (INH) (Trypsin): Not Active
inhibition (INH) (Prothrombin): Not Active

CCCCCC(=O)N[C@H](C(=O)NCCCCN)c1ccc(OCc2ccccc2)cc1
inhibition [1]: 21.3%
inhibition [3]: < 10%
inhibition [4]: 45.8%
CC50 at 24 h [5]: > 50 µM
inhibition (INH) (Trypsin): Not Active
inhibition (INH) (Prothrombin): Not Active

CCCCCC(=O)N[C@H](C(=O)NCc1ccccc1)c1ccc(OCc2ccccc2)cc1
inhibition [1]: < 10%
inhibition [3]: < 10%
inhibition [4]: < 10%
CC50 at 24 h [5]: > 50 µM
inhibition (INH) (Trypsin): Not Active
inhibition (INH) (Prothrombin): Not Active

CC(=O)N[C@H](C(=O)NCc1ccc(NC(=N)N)cc1)c1ccc(OCc2ccccc2)cc1.O=C(O)C(F)(F)F
inhibition [1]: < 10%
inhibition [3]: < 10%
inhibition [4]: 28.9%
CC50 at 24 h [5]: > 50 µM
inhibition (INH) (Trypsin): Not Active
inhibition (INH) (Prothrombin): Not Active

N=C(N)NCCC[C@H](NC(=O)[C@H](Cc1ccc(CN)cc1)NC(=O)c1ccccc1)B(O)O
inhibition (INH) (Trypsin): Not Active
inhibition (INH) (Prothrombin): Not Active

CCCCCC(=O)N[C@H](C(=O)Nc1ccc(CN)cc1)c1ccc(OCc2ccccc2)cc1.O=C(O)C(F)(F)F
inhibition [1]: 26.5%
inhibition [3]: 37.6%
CC50 at 24 h [5]: < 12.5 µM
inhibition (INH) (Trypsin): Not Active
inhibition (INH) (Prothrombin): Not Active

CCCCCC(=O)N[C@H](C(=O)NCc1cccc(CNC(=N)N)c1)c1ccc(OCc2ccccc2)cc1
inhibition [1]: 43.8%
inhibition [3]: 32.7%
inhibition [4]: 47.4%
CC50 at 24 h [5]: > 50 µM
inhibition (INH) (Trypsin): Not Active
inhibition (INH) (Prothrombin): Not Active

CCCCCC(=O)N[C@H](C(=O)N[C@@H](CCCCN)C(N)=O)c1ccc(OCc2ccccc2)cc1
inhibition [1]: < 10%
inhibition [3]: < 10%
inhibition [4]: 11.1%
CC50 at 24 h [5]: > 50 µM
inhibition (INH) (Trypsin): Not Active
inhibition (INH) (Prothrombin): Not Active

CCCCCC(=O)N[C@H](C(=O)NCc1ccncc1)c1ccc(OCc2ccccc2)cc1
inhibition [1]: < 10%
inhibition [3]: < 10%
inhibition [4]: 40.6%
CC50 at 24 h [5]: > 50 µM
inhibition (INH) (Trypsin): Not Active
inhibition (INH) (Prothrombin): Not Active

CCCCCC(=O)N[C@H](C(=O)NCc1ccc(C#N)cc1)c1ccc(OCc2ccccc2)cc1
inhibition [1]: < 10%
inhibition [3]: 25.6%
inhibition [4]: 28.3%
CC50 at 24 h [5]: > 50 µM
inhibition (INH) (Trypsin): Not Active
inhibition (INH) (Prothrombin): Not Active

CCCCCC(=O)N[C@H](C(=O)Nc1ccc(NC(=N)N)cc1)c1ccc(OCc2ccccc2)cc1.O=C(O)C(F)(F)F
inhibition [1]: 62.6%
inhibition [3]: 53.8%
CC50 at 24 h [5]: ≥ 12.5 µM
inhibition (INH) (Trypsin): Not Active
inhibition (INH) (Prothrombin): Not Active

CCCCCC(=O)N[C@H](C(=O)NCc1ccc(NC(=O)CN)cc1)c1ccc(OCc2ccccc2)cc1
inhibition [1]: 28.2%
inhibition [3]: < 10%
inhibition [4]: 10.1%
CC50 at 24 h [5]: > 50 µM
inhibition (INH) (Trypsin): Not Active
inhibition (INH) (Prothrombin): Not Active

N=C(N)NCCC[C@H](NC(=O)c1ccccc1)C(=O)N[C@@H](CCCCN)C(=O)NCC(N)=O (Bz-Arg-Lys-Gly-NH2)
inhibition [1]: 68.6%
IC50 (Genome polyprotein [2]): 23 µM
inhibition [3]: 15.3%
inhibition [4]: < 10%
inhibition (INH) (Trypsin): Not Active
inhibition (INH) (Prothrombin): Not Active
